In brackets after ≈: the same amount, converted by molar mass. Entries after “also recorded” stand apart in the source; their conditions may differ. Like-named read-outs stand apart in the source and are kept apart here. Blank lines part the entries; values can stand above or below the compound they belong to.
How the values were obtained:
[1] = Pressure stability (tableting, XRPD); type: physicochemical
Method: ENERPAC manual tablet press was used for compression. 20 mg of Form CSVI were compressed into tablets under different pressures with the dies of a 16 mm round tooling. Crystalline form before and after tableting were checked by XRPD.

[2] = Compressibility (tensile strength of compressed tablet); type: physicochemical; conditions: for Diameter / Hardness / Thickness / Tensile strength: 80 mg compressed at 10 KN; for Diameter / Hardness / Thickness: after 24 h at room temperature; for Tensile strength: T=2H/πDL
Method: ENERPAC manual tablet press was used for compression. 80 mg of Form CSVI and Form I in the prior art were weighed and added into the dies of a 16 mm round tooling, compressed at 10 KN manually, then stored at room temperature for 24 h until complete elastic recovery, diameter (D) and thickness (L) were tested with caliper. Hardness (H) was tested with an intelligent tablet hardness tester. Tensile strength of the powder was calculated with the following formula: T=2H/πDL. Under a certain force, the greater the tensile strength, the better the compressibility.

[3] = Hygroscopicity by dynamic vapor sorption (DVS); type: physicochemical; conditions: for Weight gain: DVS
Method: Dynamic Vapor Sorption (DVS) was measured via an SMS (Surface Measurement Systems Ltd.) intrinsic DVS instrument. The instrument control software is DVS-Intrinsic control software. Typical Parameters for DVS test are as follows: • Temperature: 25° C. • Gas and flow rate: N2, 200 mL/min • RH range: 0% RH to 95% RH
Dynamic vapor sorption (DVS) analyzer was applied to evaluate the hygroscopicity of Form CSVI and Form I in the prior art with an appropriate amount. The weight gains at each relative humidity were recorded in a cycle of 0-95%-0 RH.

[4] = Stability of crystalline form in drug product process; type: physicochemical; conditions: XRPD, tablet per Tables 11 and 12
Source text: The formulation and preparation process of Form CSVI are shown in Table 11 and Table 12, respectively.

[5] = Physicochemical stability of drug substance on storage (XRPD, HPLC); conditions: for Chemical purity during storage / Time for which crystalline state doesn't change / kept stable: open and sealed package
Method: An appropriate amount of Form CSVI were stored under different conditions of 25° C./60% RH and 40° C./75% RH. Crystalline form and chemical purity were checked by XRPD and HPLC, respectively.

Grinding stability = type: physicochemical; conditions: ground manually in a mortar
Method: Solid sample of Form CSVI was ground manually for 5 minutes in a mortar.

[6] = Adhesiveness (amount sticking to the punch); type: physicochemical; conditions: 30 mg, Φ8 mm tooling, 10 KN held for 30 s
Method: 30 mg of Form CSVI and Form I in the prior art were weighed and then added into the dies of Φ8 mm round tooling, compressed at 10 KN and held for 30 s. The punch was weighed and amount of material sticking to the punch was calculated. The maximum amount and average amount of material sticking to the punch during the compression were recorded.

[7] = Flowability (compressibility index); type: physicochemical
Method: Compressibility index is usually utilized to evaluate the flowability of powder or granules during the drug product process. Compressibility index test method is as follows: a certain amount of powder was added into a measuring cylinder and bulk volume was recorded. Then the powder was tapped to make it in the tightest state and the tapped volume was recorded.
The bulk density (ρ0), tapped density (ρf) were calculated and compressibility index was calculated according to c=(ρf−π0)/ρf.

[8] = Solubility in simulated gastric fluid (SGF), HPLC; type: physicochemical
Method: When solubility test is used to predict the in vivo performance of a drug, it is critical to simulate in vivo conditions as closely as possible. Simulated gastric fluid (SGF) can be used to simulate the condition in vivo and predict the effects of eating, thus solubility in this medium is closer to that in vivo. 15 mg of Form CSVI was suspended into 2.0 mL of SGF. After equilibrated for 1 h at 37° C., concentrations of the saturated solutions were measured by HPLC.

Stability under different pressures (in words) ([1]; 3, 7, 14 kN): good stability under different pressures
Solid form after tableting ([1]; Pressure 3 kN): Form CSVI
Solid form after tableting ([1]; Pressure 7 kN): Form CSVI
Solid form after tableting ([1]; Pressure 14 kN): Form CSVI
Compressibility (in words) [2]: better compressibility
Diameter [2]: 6.06 mm
Hardness [2]: 13.4 N
Thickness [2]: 2.05 mm
Tensile strength [2]: 0.69 MPa
Weight gain ([3]; 25° C./80% RH): 0.07%
Crystal form after DVS test ([3]; XRPD before and after DVS): does not change
Hygroscopicity (in words) ([3]; from weight gain at 25° C./80% RH): non or almost non hygroscopic
Crystalline form before and after the formulation process [4]: remained stable
Purity ([5]; 25° C./60% RH Open, 6 months): 99.73%
Solid Form ([5]; 25° C./60% RH Open, 6 months): Form CSVI
Purity ([5]; 25° C./60% RH Sealed, 6 months): 99.74%
Solid Form ([5]; 25° C./60% RH Sealed, 6 months): Form CSVI
Chemical purity during storage ([5]; 25° C./60% RH): above 99.7%
Time for which crystalline state doesn't change / kept stable ([5]; 25° C./60% RH): at least 6 months
Purity ([5]; 40° C./75% RH Open, 6 months): 99.73%
Solid Form ([5]; 40° C./75% RH Open, 6 months): Form CSVI
Purity ([5]; 40° C./75% RH Sealed, 6 months): 99.73%
Solid Form ([5]; 40° C./75% RH Sealed, 6 months): Form CSVI
Chemical purity during storage ([5]; 40° C./75% RH): above 99.7%
Time for which crystalline state doesn't change / kept stable ([5]; 40° C./75% RH): at least 6 months
Purity ([5]; Initial): 99.73%
Solid Form ([5]; Initial): Form CSVI
Average amount sticking to the punch [6]: 0.05 mg
Maximum amount sticking to the punch [6]: 0.10 mg
Solubility of Form CSVI relative to Form I in the prior art ([8]; SGF, 1 h): about 2 times
solubility at 1 h ([8]; simulated gastric fluid (SGF), simulated gastric fluid, thermodynamic from solid, SGF, equilibrated for 1 h at 37° C.): 2.1 µg/mL (≈ 4.83 µM)
Structure (SMILES): CC(C)c1cc(Oc2c(Cl)cc(-n3nc(C#N)c(=O)[nH]c3=O)cc2Cl)n[nH]c1=O [Form CSVI, 2-(3,5-dichloro-4-((5-isopropyl-6-oxo-1,6-dihydropyridazin-3-yl)oxy)phenyl)-3,5-dioxo-2,3,4,5-tetrahydro-1,2,4-triazine-6-carbonitrile]
Grinding stability (in words) (Grinding stability): remained stable; also recorded: doesn't change after grinding
Flowability compared with Form I in the prior art [7]: superior to that of Form I in the prior art

Diameter [2]: 6.06 mm
Hardness [2]: 7.4 N
Thickness [2]: 2.12 mm
Tensile strength [2]: 0.37 MPa
Compressibility (in words) ([2]; listed as crystalline form I): poor compressibility
Weight gain of Form I relative to Form CSVI ([3]; 25° C./80% RH): about 2 times
Weight gain ([3]; 25° C./80% RH): 0.13%
Average amount sticking to the punch [6]: 0.25 mg
Maximum amount sticking to the punch [6]: 0.30 mg
Flowability ([7]; class by compressibility index, ICH Q4B Annex 13): very poor
Solubility (in words) ([8]; inventors' evaluation of repeated Form I): low solubility
Structure (SMILES): CC(C)c1cc(Oc2c(Cl)cc(-n3nc(C#N)c(=O)[nH]c3=O)cc2Cl)n[nH]c1=O [Form I in the prior art, 2-(3,5-dichloro-4-((5-isopropyl-6-oxo-1,6-dihydropyridazin-3-yl)oxy)phenyl)-3,5-dioxo-2,3,4,5-tetrahydro-1,2,4-triazine-6-carbonitrile, reference compound]
Grinding stability (in words) (Grinding stability; listed as crystalline form I): most of the crystalline form I transform to amorphous after grinding

Hygroscopicity (in words) ([3]; according to WO2020010068A1 and the inventors' experimental study, conditions not given): high hygroscopicity
Structure (SMILES): CC(C)c1cc(Oc2c(Cl)cc(-n3nc(C#N)c(=O)[nH]c3=O)cc2Cl)n[nH]c1=O [crystalline form F, reference compound]

— patent US12595254B2, “Crystal form of Resmetirom, preparation method therefor, and use thereof” (CRYSTAL PHARMACEUTICAL (SUZHOU) CO., LTD., priority 2020, dated 2026)
